Results reported in patent US20190225683A1, “TARGETING OXAZOLE STRUCTURES FOR THERAPY AGAINST INFLAMMATORY DISEASES” (THE BRIGHAM AND WOMEN'S HOSPITAL, INC., priority 2015, published 2019).
“Also recorded” adds a separate entry of the source.

Key:
[1] = tested on: MODE-K cells; experiment: MODE-K cells stimulated with compounds, Mttp and Cxcl16 transcripts by qPCR; format: cell-based, mouse; conditions: for Cxcl16 transcript expression / Mttp transcript expression: MODE-K cells, 48 hours, qPCR normalized to β-actin; for Transcriptional pattern of NKT signature genes (Mttp, Cxcl16): MODE-K epithelial cells
Procedure: Mode-K cells were stimulated for 48 hours with the listed compounds and MUT) (2A) and Cxcl16 (2B) transcript express was quantified by qPCR normalized to β-actin, a housekeeping gene. Graph color coded to indicate control, OxC, and ITE compounds. […]
Kinetic transcript profiles of Mttp, Cxcl16, CD1d, and Hsp110 are assessed by qPCR normalizing transcript abundance to house keeping gene, (3-actin. Protein expression is quantified by immunoblot (MTTP, HSP110) or ELISA (CXCL16). CD1d protein expression is monitored using monoclonal antibodies conjugated to phycoerythrin and fluorescein isothyocynate to assess CD1d trafficking to and from the cell surface.[89]Stimulatory ligands are washed out prior to administration of αGC, and conditioned cells are co-cultured over night with 4 classes of invariant (DN32.D3, 24.7, 24.8) or non-variant (14S.6) to assess αGC specific and autoreactive responses to epithelial and myeloid cell lipid presentation. Production of IL-10, IL-4, IL-13, IFNγ response to epithelial and myeloid, and the source of cytokine production (APC or NKT) are determined using gluteraldehyde fixation. Primary iNKT cells are isolated from colonic lamina propria or peripheral organs (liver, spleen, mesenteric lymph node) and purified by FACS (BD ARIA-II Sorter) using monoclonal antibodies against CD45, TCRI3, CD3E, and CD1d:αGC loaded tetramer (APC conjugated) and exclusion of unloaded CD1d tetramer (PE). […] Strand specific libraries are generated using 500 ng RNA input and subject to paired-end 100 bp read sequencing using a HISEQ2000 at the Dana Farber Cancer Institute. Sequence reads are aligned to the mouse mm10 reference genome using Tophat alignments restricted to uniquely mapping reads with <2 possible mismatches permitted. […] Candidate transcripts arevalidated in primary IECs (EpCAM+ CD45−) or mucosal APCs by qPCR.

[2] = tested on: AhR response elements (XRE); conditions: cited from earlier work
[3] = tested on: 24.7 NKT hybridoma; experiment: Compound-conditioned MODE-K cells incubated with alpha-galactosylceramide, co-cultured with 24.7 iNKT hybridoma, IL-10 by ELISA; format: cell-based, mouse; conditions: MODE-K conditioned with compound or lysate, αGC presented on CD1d
Procedure: FIGS. 3A-3B depict in accordance with an embodiment of the invention, (3A) MODE-K cells transfected with control- or AhR-targeted siRNA. After 48 hours, these cells were stimulated with the compounds indicated for 48 hours. Cells were washed and incubated with alpha-galactosylceramide and subsequently co-cultured with the 24.7 NKT hybridoma. IL-10 production was measured by ELISA. (3B) Hepatocytes from WT or AhR-deficient mice were stimulated as in (3A).
FIGS. 7A-7B depict in accordance with an embodiment of the invention, (7A) structure of the OxC compound, B17 microcin. […] Cells were incubated with aGC and co-cultured with24.7 iNKT hybridoma and IL-10 production was measured. “[…]”, “G2QG2”, “GGNG”, and “GSHI” are disclosed as SEQ ID NO: 3, SEQ ID NO: 6, SEQ ID NO: 5, and SEQ ID NO: 2, respectively.
Kinetic transcript profiles of Mttp, Cxcl16, CD1d, and Hsp110 are assessed by qPCR normalizing transcript abundance to house keeping gene, (3-actin. Protein expression is quantified by immunoblot (MTTP, HSP110) or ELISA (CXCL16). CD1d protein expression is monitored using monoclonal antibodies conjugated to phycoerythrin and fluorescein isothyocynate to assess CD1d trafficking to and from the cell surface.[89]Stimulatory ligands are washed out prior to administration of αGC, and conditioned cells are co-cultured over night with 4 classes of invariant (DN32.D3, 24.7, 24.8) or non-variant (14S.6) to assess αGC specific and autoreactive responses to epithelial and myeloid cell lipid presentation. Production of IL-10, IL-4, IL-13, IFNγ response to epithelial and myeloid, and the source of cytokine production (APC or NKT) are determined using gluteraldehyde fixation. […] Strand specific libraries are generated using 500 ng RNA input and subject to paired-end 100 bp read sequencing using a HISEQ2000 at the Dana Farber Cancer Institute. Sequence reads are aligned to the mouse mm10 reference genome using Tophat alignments restricted to uniquely mapping reads with <2 possible mismatches permitted. […]

[4] = tested on: NFkB reporter; experiment: NFkB reporter assay; format: cell-based; conditions: FIG. 14
[5] = Colitis model: skin pre-sensitization, then intra-rectal administration; format: in vivo, mice
Procedure: Colitis scores were blindly performed by a pathologist.
Distal colon explants were cultured overnight and IL-10 (6A) and IL-13 (6B) production was measured by ELISA.
Changes in weight are monitored and colons harvested on day 3 and day 5 post-rectal challenge for histopathological analysis. Distalhyperemia in the mucosa, cellular infiltration in the lamina propria, elongation of colonic mucosa, epithelial erosion. The number of conventional T cells, NKT cells and mucosal APC subsets are enumerated by established flow cytometry protocols.[11] In addition, kinetic cytokine profiles are analyzed to verify that OxC colitis phenocopies molecular signatures associated with oxazolone colitis. […] [8] In addition, colonic IECs and lamina propria mononuclear cells are sorted by FACS and analyzed for Mttp and Cxcl16 expression by qPCR.

[6] = tested on: AhR reporter; experiment: AhR reporter assay; format: cell-based; conditions: FIG. 14
[7] = target: T1, AhR (Homo sapiens, UniProt P35869); conditions: hepatocyte reporter assay; cited from earlier work
T1 construct: endogenous in cells; host or cells: HepG2
T1 sequence (P35869 11-848): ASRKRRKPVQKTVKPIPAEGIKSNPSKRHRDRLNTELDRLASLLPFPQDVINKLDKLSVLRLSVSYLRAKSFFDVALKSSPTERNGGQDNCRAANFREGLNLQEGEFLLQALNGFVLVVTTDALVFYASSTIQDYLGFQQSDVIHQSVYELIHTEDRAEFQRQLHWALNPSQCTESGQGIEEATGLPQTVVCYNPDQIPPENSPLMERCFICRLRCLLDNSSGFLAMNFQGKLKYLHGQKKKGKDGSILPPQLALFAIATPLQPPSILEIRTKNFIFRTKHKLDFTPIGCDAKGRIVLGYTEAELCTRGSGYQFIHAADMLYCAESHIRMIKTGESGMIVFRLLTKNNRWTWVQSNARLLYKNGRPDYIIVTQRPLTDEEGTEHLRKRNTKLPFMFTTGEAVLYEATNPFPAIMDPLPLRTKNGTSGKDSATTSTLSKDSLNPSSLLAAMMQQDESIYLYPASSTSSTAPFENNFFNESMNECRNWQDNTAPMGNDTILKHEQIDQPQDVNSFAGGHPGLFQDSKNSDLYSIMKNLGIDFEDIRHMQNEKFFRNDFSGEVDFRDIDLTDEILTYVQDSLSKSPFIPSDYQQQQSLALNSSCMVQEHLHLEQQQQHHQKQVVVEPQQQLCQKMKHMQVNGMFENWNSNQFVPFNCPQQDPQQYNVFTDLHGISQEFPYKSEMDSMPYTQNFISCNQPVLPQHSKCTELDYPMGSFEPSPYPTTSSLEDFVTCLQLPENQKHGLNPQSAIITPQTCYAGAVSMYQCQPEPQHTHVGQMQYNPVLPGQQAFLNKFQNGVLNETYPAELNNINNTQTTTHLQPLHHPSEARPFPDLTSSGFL

[8] = target: T2, aryl hydrocarbon receptor (AhR) (Homo sapiens, UniProt P35869); conditions: previous studies; cited from earlier work
T2 sequence (P35869 11-848): T1 sequence (P35869 11-848)

[9] = tested on: AhR; experiment: AhR targets Cyp1a1 and IDO1 by qPCR in MODE-K cells with control or AhR-targeted siRNA; format: cell-based, mouse; conditions: MODE-K cells or primary hepatocytes
Procedure: FIGS. 8A-8C depict in accordance with an embodiment of the invention, MODE-K transfected with control or AhR-targeted siRNA. After 48 hours, MODE-K cells were stimulated with the indicated compounds. Cyp1a1 (8A) or IDO1 (8B, 8C) were quantified by qPCR.
Stimulation of MODE-K cells with OxC compounds but not control compounds differentially regulates two well characterized AhR targets: Cyp1a1,[68] and IDO1. [FIG. 8] Specific siRNA mediated knockdown of the AhR in MODE-K cells diminished expression of both AhR targets in response to OxC stimulation.

[10] = compared to vehicle treated control animals

Compound | Cxcl16 transcript expression [1] | Mttp transcript expression [1] | IL-10 production by iNKT cells co-cultured with conditioned cells [3] | NFkB reporter activation [4] | AhR reporter activation [6] | Transcriptional pattern of NKT signature genes (Mttp, Cxcl16) [1] | further results
1-methyl-pyrroline [MP] | loss of these biological effects | loss of these biological effects | – | – | – | – | –
COC(=O)c1csc(C(=O)c2c[nH]c3ccccc23)n1 [ITE, 2-(1H-Indol-3-carbonyl)-4-thiazolecarboxylic acid methyl ester] | – | – | – | – | – | – | Concentration activating XRE [2]: picomolar concentrations
CC1CC(C)C(C)C1 (stereo not shown) [TMC, 1,2,4-trimethylcyclopentane] | loss of these biological effects | loss of these biological effects | – | – | – | – | –
CC1=NC(C)OC1C (stereo not shown) [TMO, 2,4,5-trimethyl-2,5-dihydro-1,3-oxazole] | induce CXCL16 | suppress Mttp | diminished; also recorded: inhibited IL-10 production | not an NFkB reporter | activate an AhR reporter | – | Colitis phenotype in vivo [5, 10]: phenocopies the inflammation associated with oxazolone; Colon shortening [5, 10]: colon shortening; Expression of Th2 cytokines [5, 10]: expression of Th2 cytokines characteristic of ulcerative colitis; Histopathology, blind scoring by a pathologist [5, 10]: histopathology (based on blind scoring by a pathologist); Weight loss [5, 10]: increased weight loss
C=CC1(C)OC(=O)N(c2cc(Cl)cc(Cl)c2)C1=O (stereo not shown) [Vinclozolin, vinclozolin] | – | – | exerts modulatory effects on iNKT cell responses similar oxazolone | – | – | demonstrates a similar transcriptional pattern | Cellular responses (transcriptional changes and NKT responses) ([1]; preliminary experiments, FIGS. 2, 3): elicit similar cellular responses as oxazolone and TMO; AhR activation in HepG2 [7]: AhR activator; AhR ligand status [8]: ligand for the aryl hydrocarbon receptor (AhR)
CCO/C=C1\N=C(c2ccccc2)OC1=O [oxazolone, 4-ethoxymethylene-2-phenyl-oxazol-5-one] | induce CXCL16 | suppress Mttp | diminished; also recorded: inhibited IL-10 production | not an NFkB reporter | activate an AhR reporter | modulates specific gene targets involved in NKT cell biology | Expression of AhR targets Cyp1a1 and IDO1 [9]: modulates well-characterized AhR targets; Oxazolone colitis in Vil-Cre+ X AhR fl/fl mice ([5]; 3% presensitization, 1% intra-rectal, epithelial AhR deficiency): protected against oxazolone colitis
